From ChEMBL document CHEMBL4177659, “Two new dammarane-type triterpene saponins from Korean red ginseng and their anti-inflammatory effects” (Bioorg Med Chem Lett, 2017)
Active and inactive are the calls of the source.

Columns and labels:
Type in all cases: functional, cell-based
RAW264.7 [1] = assay: Antiinflammatory activity against mouse RAW264.7 cells assessed as inhibition of LPS induced IL-6 release 10 uM preincubated for 2 hrs followed by LPS challenge measured after 24 hrs by sandwich ELISA
RAW264.7 [2] = assay: Antiinflammatory activity against mouse RAW264.7 cells assessed as inhibition of LPS induced TNFalpha release preincubated for 2 hrs followed by LPS challenge measured after 24 hrs by sandwich ELISA
RAW264.7 [3] = assay: Antiinflammatory activity against mouse RAW264.7 cells assessed as inhibition of LPS induced cox-2 expression at 10 uM preincubated for 2 hrs followed by LPS challenge measured after 24 hrs by Western blot method
RAW264.7 [4] = assay: Antiinflammatory activity against mouse RAW264.7 cells assessed as inhibition of LPS induced iNOS expression at 10 uM preincubated for 2 hrs followed by LPS challenge measured after 24 hrs by Western blot method
RAW264.7 [5] = assay: Antiinflammatory activity against mouse RAW264.7 cells assessed as inhibition of LPS induced cox-2 expression at 20 uM preincubated for 2 hrs followed by LPS challenge measured after 24 hrs by Western blot method
RAW264.7 [6] = assay: Antiinflammatory activity against mouse RAW264.7 cells assessed as inhibition of LPS induced iNOS expression at 20 uM preincubated for 2 hrs followed by LPS challenge measured after 24 hrs by Western blot method

Measured: Activity

CC(C)=CCC[C@@](C)(O)[C@H]1CC[C@]2(C)[C@@H]1[C@H](O)C[C@@H]1[C@@]3(C)CCC(=O)C(C)(C)[C@@H]3[C@@H](O[C@@H]3O[C@H](CO)[C@@H](O)[C@H](O)[C@H]3O)C[C@]12C
active: RAW264.7 [1] | RAW264.7 [2] Dose-dependent effect | RAW264.7 [3] | RAW264.7 [4]

Cc1ccc(-c2cc(C(F)(F)F)nn2-c2ccc(S(N)(=O)=O)cc2)cc1
active: RAW264.7 [5] | RAW264.7 [6]
